Patent publication US20170056423A1 (Gilead Sciences, Inc., priority 2012, published 2017)
Read-outs that look alike come from different tables or passages of the source. Blank lines part the entries; values can stand above or below the compound they belong to.

Columns and labels:
[1] = test system: UDP-glucuronosyltransferases; assay: UDP-glucuronosyltransferase interaction; format: in vitro ADME, human; details: in vitro or in vivo in humans
cytochrome P450 enzymes = details: in vitro or in vivo in humans
[2] = in vivo
[3] = target: aryl hydrocarbon receptor (Homo sapiens, UniProt P35869); assay: aryl hydrocarbon receptor activation
[4] = test system: cytochrome P450 enzymes (all isoforms tested); assay: in vitro; details: human
HIV-1 = details: against HIV-1 in T cells, activated PBMCs, and macrophages
UGT1A1 = UGT1A1 (Homo sapiens, UniProt P22309); details: at concentrations up to 50 μM
[5] = Study 1, while receiving GS-7340 SA (25 mg)
[6] = target: human pregnane X receptor (Homo sapiens, UniProt O75469); assay: pregnane X receptor activation
[7] = 25 mg level
Experimental: In order to provide a robust assessment of pharmacokinetic comparisons between test versus reference treatments, a balanced Williams 4×4 design was used in each cohort.
The evaluation used two cohorts of twenty patients. In Cohort 1, the following study treatments were administered.

[8] = test system: transporters including P-glycoprotein, MRP1, and MRP2; assay: permeability assays for transporter interaction; format: in vitro ADME
CYP1A2 = CYP1A2 (Homo sapiens, UniProt P05177); assay: CYP1A2 inhibition; format: in vitro ADME
[9] = test system: cytochrome P450, UGT1A1, or P-glycoprotein; assay: xenobiotic receptor transactivation and human hepatocyte induction studies; format: in vitro ADME; details: at up to 30 μM
caco-2 cell monolayers = assay: bidirectional permeability of HIV protease inhibitors and GS-7340 through caco-2 monolayers; format: in vitro ADME; details: COBI 90 μM, GS-7340 10 μM, over 2 hours
Pgp = target: T1, Pgp (Homo sapiens, UniProt P08183); assay: Pgp inhibition assay, calcein AM accumulation in MDCKII-MDR1 cells; format: cell-based
T1 construct: expressed in transfected cells; host or cells: MDCKII (Madin-Darby canine kidney) cells, MDCKII-MDR1
Experimental: (§1) Pgp and BCRP inhibition assays in transfected Madin-Darby canine kidney (MDCKII) cells: Inhibition of Pgp-mediated transport was studied using the Pgp substrate calcein AM and MDCKII cells transfected with the human MDR1 (ABCB1) gene (encoding Pgp). Similarly, inhibition of BCRP-mediated transport was studied using the BCRP substrate Hoechst 33342 and MDCKII cells transfected with the human ABCG2 gene (encoding BCRP). Briefly, MDCKII cells were seeded in 96-well black cell culture plates with clear bottoms at a density of 5×10^4 cells/well and grown to confluence overnight. Test compounds were diluted in cell culture medium containing 10 μM Hoechst 33342 and incubated for 3 hours with MDCKII-BCRP and nontransfected cells. Following removal of media containing Hoechst 33342 and test compound, cells were washed twice with warm medium and lysed at room temperature for 5-10 minutes in a buffer containing 20 mM Tris-HCl pH 9.0 and 0.4% Triton X-100. Wells were analyzed for Hoechst 33342 fluorescence at an excitation of 353 nm and an emission of 460 nm. […]

CYP2D6 = CYP2D6 (Homo sapiens, UniProt P10635); assay: CYP2D6 inhibition; format: in vitro ADME
CYP2C8 = CYP2C8 (Homo sapiens, UniProt P10632); assay: CYP2C8 inhibition; format: in vitro ADME
BCRP [10] = target: T2, BCRP (Homo sapiens, UniProt Q9UNQ0); assay: BCRP substrate assay, bidirectional permeability in MDCKII-BCRP cells; format: in vitro ADME; details: 10 μM, MDCKII-BCRP vs MDCKII-WT, ± Ko134
T2 construct: expressed in transfected cells; host or cells: MDCKII (Madin-Darby canine kidney) cells, MDCKII-ABCG2 / MDCKII-BCRP
Experimental: (§2) Pgp and BCRP substrate assays in transfected MDCKII cells: MDCKII cells were grown to confluence over 4-6 days on 24-well PET transwell plates (BD Biosciences). The same buffers were used in the donor and receiver wells as described above for caco-2 studies. Experiments were conducted as described above for caco-2 transepithelial transport studies and samples analyzed by LC/MS/MS. Similar quality control and acceptance criteria were used as those described above for caco-2 studies. TEER values and the permeability of lucifer yellow, atenolol, and propranolol were determined to meet acceptance criteria for each batch of assay plates. Efflux ratios were determined to be at least 3-fold higher in transfected versus nontransfected monolayers for the model Pgp substrate vinblastine and BCRP substrate prazosin.
(§3) Data analysis: The 50% inhibition constants (IC50) values for transporters in the fluorescent accumulation studies done in MDCKII cells, defined as the test article concentration needed to inhibit the maximal transporter specific transport by 50%, were calculated using nonlinear curve fitting of inhibition versus concentration to a sigmoidal curve with a variable Hill coefficient using GraphPad Prism 5 (GraphPad Software Inc., San Diego, Calif.). […]

CYP2C9 = CYP2C9 (Homo sapiens, UniProt P11712); assay: CYP2C9 inhibition; format: in vitro ADME
CYP2B6 = CYP2B6 (Homo sapiens, UniProt P20813); assay: CYP2B6 inhibition; format: in vitro ADME; details: similar potency to ritonavir
[11] = target: uridine glucuronosyltransferase 1A1 (Homo sapiens, UniProt P22309); assay: UGT1A1 inhibition by cobicistat; format: in vitro ADME
[12] = target: T3, Pgp (multidrug resistance protein 1; MDR1) (Homo sapiens, UniProt P08183); assay: Pgp substrate assay, bidirectional permeability in MDCKII-MDR1 cells; format: in vitro ADME; details: 10 μM, MDCKII-MDR1 vs MDCKII-WT, ± CSA
T3 construct: expressed in transfected cells; host or cells: MDCKII (Madin-Darby canine kidney) cells, MDCKII-MDR1
Experimental: as §2, §3

CYP2C19 = CYP2C19 (Homo sapiens, UniProt P33261); assay: CYP2C19 inhibition; format: in vitro ADME
BCRP [13] = target: T2, BCRP; assay: BCRP inhibition assay, Hoechst 33342 accumulation in MDCKII-ABCG2 cells; format: cell-based; details: Hoechst 33342, MDCKII-ABCG2 cells
Experimental: as §1

T2 sequence (Q9UNQ0 whole entry): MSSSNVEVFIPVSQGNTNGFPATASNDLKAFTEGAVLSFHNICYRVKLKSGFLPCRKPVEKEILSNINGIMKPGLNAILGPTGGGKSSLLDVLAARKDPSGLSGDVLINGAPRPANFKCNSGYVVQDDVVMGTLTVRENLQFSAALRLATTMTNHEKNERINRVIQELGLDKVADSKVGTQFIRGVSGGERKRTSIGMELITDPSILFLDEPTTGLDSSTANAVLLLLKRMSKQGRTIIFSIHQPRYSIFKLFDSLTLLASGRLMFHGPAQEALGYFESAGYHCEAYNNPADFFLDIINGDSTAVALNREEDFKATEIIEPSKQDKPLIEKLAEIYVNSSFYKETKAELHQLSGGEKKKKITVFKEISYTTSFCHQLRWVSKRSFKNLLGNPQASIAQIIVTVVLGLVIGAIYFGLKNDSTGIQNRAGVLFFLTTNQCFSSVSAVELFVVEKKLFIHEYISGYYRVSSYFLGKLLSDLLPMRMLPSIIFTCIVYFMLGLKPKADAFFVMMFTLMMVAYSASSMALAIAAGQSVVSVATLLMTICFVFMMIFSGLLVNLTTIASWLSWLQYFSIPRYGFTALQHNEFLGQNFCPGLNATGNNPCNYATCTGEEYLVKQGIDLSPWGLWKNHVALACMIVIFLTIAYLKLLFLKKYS
UGT1A1, sequence (P22309 26-533): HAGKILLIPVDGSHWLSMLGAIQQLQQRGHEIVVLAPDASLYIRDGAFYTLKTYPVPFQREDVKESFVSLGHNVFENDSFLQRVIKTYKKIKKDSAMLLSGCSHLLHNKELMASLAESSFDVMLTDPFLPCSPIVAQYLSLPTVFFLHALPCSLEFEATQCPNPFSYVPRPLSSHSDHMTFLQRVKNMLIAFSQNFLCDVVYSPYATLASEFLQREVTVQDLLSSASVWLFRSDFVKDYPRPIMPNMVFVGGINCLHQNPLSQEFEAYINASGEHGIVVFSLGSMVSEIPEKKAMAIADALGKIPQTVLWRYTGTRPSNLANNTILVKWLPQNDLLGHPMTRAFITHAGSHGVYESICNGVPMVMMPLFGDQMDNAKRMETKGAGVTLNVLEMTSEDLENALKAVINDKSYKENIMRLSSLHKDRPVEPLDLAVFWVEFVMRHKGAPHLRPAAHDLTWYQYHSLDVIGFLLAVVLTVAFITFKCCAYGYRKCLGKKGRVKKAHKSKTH
uridine glucuronosyltransferase 1A1, sequence (P22309 26-533): as above
human pregnane X receptor, sequence (O75469 whole entry): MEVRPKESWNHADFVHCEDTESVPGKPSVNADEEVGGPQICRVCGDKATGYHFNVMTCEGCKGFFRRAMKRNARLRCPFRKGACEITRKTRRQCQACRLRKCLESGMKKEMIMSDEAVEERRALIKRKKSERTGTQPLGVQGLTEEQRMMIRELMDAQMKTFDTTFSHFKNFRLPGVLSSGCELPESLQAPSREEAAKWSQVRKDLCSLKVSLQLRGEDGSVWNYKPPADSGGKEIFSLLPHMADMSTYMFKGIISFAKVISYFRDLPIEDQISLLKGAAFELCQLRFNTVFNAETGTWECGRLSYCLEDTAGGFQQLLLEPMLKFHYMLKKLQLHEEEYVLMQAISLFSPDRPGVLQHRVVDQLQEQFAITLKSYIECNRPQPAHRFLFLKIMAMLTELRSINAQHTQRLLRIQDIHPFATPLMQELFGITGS
aryl hydrocarbon receptor, sequence (P35869 11-848, species assumed): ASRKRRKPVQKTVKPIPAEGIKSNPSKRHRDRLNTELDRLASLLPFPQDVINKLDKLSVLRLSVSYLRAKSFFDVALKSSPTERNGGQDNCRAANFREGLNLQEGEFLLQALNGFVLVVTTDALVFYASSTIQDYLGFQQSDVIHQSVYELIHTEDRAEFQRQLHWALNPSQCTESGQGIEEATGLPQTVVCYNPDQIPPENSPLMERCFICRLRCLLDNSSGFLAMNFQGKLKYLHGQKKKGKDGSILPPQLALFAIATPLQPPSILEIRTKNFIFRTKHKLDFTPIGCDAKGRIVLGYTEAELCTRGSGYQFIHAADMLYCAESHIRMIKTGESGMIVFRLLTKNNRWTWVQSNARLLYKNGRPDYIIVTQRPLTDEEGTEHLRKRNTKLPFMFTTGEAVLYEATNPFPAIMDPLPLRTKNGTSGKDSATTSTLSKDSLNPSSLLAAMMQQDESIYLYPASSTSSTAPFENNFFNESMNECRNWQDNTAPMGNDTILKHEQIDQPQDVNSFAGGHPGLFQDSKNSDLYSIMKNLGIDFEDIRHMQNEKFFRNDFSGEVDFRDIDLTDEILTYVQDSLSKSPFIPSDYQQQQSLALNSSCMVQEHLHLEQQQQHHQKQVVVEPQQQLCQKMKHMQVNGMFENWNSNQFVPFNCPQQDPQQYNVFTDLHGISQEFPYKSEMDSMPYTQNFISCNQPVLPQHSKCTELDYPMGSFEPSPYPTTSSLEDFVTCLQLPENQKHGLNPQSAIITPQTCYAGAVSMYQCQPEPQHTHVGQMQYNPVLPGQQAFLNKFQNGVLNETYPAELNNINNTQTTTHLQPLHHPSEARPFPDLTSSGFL
CYP2C9, sequence (P11712 whole entry): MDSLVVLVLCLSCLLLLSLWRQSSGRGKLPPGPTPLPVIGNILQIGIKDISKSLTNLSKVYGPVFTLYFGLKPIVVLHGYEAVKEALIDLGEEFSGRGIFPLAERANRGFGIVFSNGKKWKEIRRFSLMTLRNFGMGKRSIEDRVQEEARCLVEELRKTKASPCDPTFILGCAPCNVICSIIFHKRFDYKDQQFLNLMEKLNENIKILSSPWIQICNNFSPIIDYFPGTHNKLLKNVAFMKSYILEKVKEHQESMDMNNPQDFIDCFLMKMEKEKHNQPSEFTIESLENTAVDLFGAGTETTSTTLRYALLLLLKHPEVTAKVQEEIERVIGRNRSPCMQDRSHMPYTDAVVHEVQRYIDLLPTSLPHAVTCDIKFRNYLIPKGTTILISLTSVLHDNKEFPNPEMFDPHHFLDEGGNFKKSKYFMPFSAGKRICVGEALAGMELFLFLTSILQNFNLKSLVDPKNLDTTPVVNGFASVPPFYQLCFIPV
CYP2C19, sequence (P33261 whole entry): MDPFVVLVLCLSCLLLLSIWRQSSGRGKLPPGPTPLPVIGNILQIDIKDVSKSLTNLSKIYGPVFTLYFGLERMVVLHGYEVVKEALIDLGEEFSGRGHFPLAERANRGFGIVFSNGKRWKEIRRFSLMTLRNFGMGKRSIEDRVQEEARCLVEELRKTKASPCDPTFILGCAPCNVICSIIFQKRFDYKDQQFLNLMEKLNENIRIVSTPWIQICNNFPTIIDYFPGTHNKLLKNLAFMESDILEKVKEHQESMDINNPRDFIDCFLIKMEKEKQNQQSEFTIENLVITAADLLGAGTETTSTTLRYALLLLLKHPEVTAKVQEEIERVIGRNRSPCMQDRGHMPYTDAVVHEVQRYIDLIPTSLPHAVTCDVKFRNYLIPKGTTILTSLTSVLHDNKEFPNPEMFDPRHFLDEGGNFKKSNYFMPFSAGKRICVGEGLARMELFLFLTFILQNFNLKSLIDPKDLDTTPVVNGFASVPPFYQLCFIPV
CYP1A2, sequence (P05177 whole entry): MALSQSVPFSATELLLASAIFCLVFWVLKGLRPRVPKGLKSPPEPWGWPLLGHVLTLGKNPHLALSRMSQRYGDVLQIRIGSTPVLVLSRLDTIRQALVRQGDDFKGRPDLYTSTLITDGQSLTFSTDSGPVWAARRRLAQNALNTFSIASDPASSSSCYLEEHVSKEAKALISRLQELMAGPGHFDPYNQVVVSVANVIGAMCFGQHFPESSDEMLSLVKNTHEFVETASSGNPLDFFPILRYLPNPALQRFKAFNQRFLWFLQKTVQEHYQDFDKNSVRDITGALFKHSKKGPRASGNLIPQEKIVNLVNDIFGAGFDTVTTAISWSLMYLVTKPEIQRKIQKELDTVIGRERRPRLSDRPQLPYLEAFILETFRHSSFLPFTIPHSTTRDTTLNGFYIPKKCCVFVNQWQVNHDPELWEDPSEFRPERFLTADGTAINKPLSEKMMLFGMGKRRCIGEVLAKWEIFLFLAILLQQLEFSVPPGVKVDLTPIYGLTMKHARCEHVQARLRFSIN
CYP2C8, sequence (P10632 whole entry): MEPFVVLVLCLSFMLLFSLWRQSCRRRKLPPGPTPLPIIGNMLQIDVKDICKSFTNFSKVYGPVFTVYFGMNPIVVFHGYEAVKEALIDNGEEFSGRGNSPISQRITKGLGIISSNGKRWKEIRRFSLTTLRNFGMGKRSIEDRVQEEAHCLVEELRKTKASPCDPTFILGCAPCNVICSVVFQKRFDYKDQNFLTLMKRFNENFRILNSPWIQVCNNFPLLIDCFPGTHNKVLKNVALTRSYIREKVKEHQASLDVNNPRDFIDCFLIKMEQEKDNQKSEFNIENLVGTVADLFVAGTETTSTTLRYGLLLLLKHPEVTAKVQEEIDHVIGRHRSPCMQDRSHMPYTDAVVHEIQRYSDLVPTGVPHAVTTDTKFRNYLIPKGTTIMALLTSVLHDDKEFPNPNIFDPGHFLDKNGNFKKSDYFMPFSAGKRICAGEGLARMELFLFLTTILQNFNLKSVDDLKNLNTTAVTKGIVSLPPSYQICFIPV
CYP2D6, sequence (P10635 whole entry): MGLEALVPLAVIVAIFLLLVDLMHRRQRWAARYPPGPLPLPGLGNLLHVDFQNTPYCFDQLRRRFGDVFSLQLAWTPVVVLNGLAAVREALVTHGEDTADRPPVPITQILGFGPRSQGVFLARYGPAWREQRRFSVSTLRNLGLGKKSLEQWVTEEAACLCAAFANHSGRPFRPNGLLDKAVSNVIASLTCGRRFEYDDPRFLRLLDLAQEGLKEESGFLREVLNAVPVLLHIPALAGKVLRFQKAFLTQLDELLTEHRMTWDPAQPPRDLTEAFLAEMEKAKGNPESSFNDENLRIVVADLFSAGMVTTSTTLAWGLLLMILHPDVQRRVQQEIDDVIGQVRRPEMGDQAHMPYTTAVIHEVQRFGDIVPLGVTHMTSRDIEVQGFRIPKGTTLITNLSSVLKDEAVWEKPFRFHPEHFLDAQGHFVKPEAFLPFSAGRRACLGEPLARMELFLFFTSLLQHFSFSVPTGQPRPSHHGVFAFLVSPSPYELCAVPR

SMILES: C[C@H](Cn1cnc2c(N)ncnc21)OCP(=O)(O)O [tenofovir, 9-R-[(2-phosphonomethoxy)propyl]adenine]
interaction with UDP-glucuronosyltransferases as substrate, inhibitor, or inducer [1]: does not interact significantly | interaction with human cytochrome P450 enzymes as substrate, inhibitor, or inducer (cytochrome P450 enzymes): does not interact significantly | systemic exposure equivalent, fold higher than a dose of tenofovir alone [2]: 3 to 4 fold

SMILES: CC(C)OC(=O)[C@H](C)N[P@](=O)(CO[C@H](C)Cn1cnc2c(N)ncnc21)Oc1ccccc1 [GS-7340, 9-[(R)-2-[[(S)-[[(S)-1-(isopropoxycarbonyl)ethyl]amino]phenoxyphosphinyl]methoxy]propyl]adenine]
activation of aryl hydrocarbon receptor [3]: not an activator | IC50 [4]: > 7 µM | enhanced anti-HIV activity relative to tenofovir (HIV-1): 500- to 1000 fold | inhibition of UGT1A1 function (UGT1A1): does not inhibit | adverse event leading to one discontinuation [5]: rhabdomyolysis (Grade 2) | activation of human pregnane X receptor [6]: not an activator | GS-7340 levels, fold higher when administered with cobicistat ([7]; Cohort 1 (Formulation 1, monolayer), FIG. 6): 2.2 fold | GS-7340 levels, fold higher when administered with cobicistat ([7]; Cohort 2 (Formulation 2, bilayer), FIG. 7): 2.2 fold

substrate or inhibitor of transporters [8]: not a strong substrate or inhibitor | inhibition of CYP1A2 (CYP1A2): does not appreciably inhibit | potential as inducer of cytochrome P450, UGT1A1, or P-glycoprotein [9]: no/weak potential as an inducer | effect on A-B flux of GS-7340 (caco-2 cell monolayers): increased the A-B flux | effect on B-A flux of GS-7340 (caco-2 cell monolayers): reducing B-A flux | IC50 (Pgp): 36 ± 10 µM | inhibition of CYP2D6 (CYP2D6): weak inhibitor | inhibition of CYP2C8 (CYP2C8): does not appreciably inhibit | substrate for BCRP (BCRP [10]): substrate | inhibition of CYP2C9 (CYP2C9): does not appreciably inhibit | inhibition of CYP2B6 (CYP2B6): moderate inhibitor | inhibition of uridine glucuronosyltransferase 1A1 [11]: does not appreciably inhibit | substrate for Pgp [12]: substrate | inhibition of CYP2C19 (CYP2C19): does not appreciably inhibit | IC50 (BCRP [13]): 59 ± 28 µM
SMILES: CC(C)c1nc(CN(C)C(=O)N[C@@H](CCN2CCOCC2)C(=O)N[C@H](CC[C@H](Cc2ccccc2)NC(=O)OCc2cncs2)Cc2ccccc2)cs1 [cobicistat, 1,3-thiazol-5-ylmethyl (2R,5R)-(5-{[(2S)-2-[(methyl{[2-(propan-2-yl)-1,3-thiazol-4-yl]methyl}carbamoyl)amino]]-4-(morpholin-4-yl)butanamido}-1,6-diphenylhexan-2-yl)carbamate]
